Measured values published in patent US8067445B2, “N,N-disubstituted aminoalkylbiphenyl antagonists of prostaglandin D2 receptors” (Panmira Pharmaceuticals, LLC, priority 2008, dated 2011).
pIC50: −log10 of the molar value. Like-named read-outs stand apart in the source and are kept apart here.

What was measured:
human DP1 receptor = biological target: T1, human DP1 receptor (Homo sapiens, UniProt Q13258); test: DP1 radioligand binding assay ([3H]BWA868C, platelet membranes)
T1 construct: tissue Biological Specialty Corporation; host or cells: human platelet membranes
T1 sequence (Q13258 1-359): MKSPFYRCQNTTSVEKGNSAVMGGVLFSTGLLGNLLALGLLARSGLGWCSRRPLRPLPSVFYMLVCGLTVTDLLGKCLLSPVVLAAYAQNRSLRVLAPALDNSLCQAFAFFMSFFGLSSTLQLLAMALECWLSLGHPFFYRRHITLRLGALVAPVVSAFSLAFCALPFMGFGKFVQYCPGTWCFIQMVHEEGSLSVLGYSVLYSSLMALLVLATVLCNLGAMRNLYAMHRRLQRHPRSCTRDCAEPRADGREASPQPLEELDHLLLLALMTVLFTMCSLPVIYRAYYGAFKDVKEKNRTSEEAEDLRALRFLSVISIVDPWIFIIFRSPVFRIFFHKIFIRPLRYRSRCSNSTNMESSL
Description: The ability of a compound to bind to the human DPI receptor was evaluated via a radioligand membrane binding assay using the DP1 selective synthetic ligand [^311]BWA868C. Packed human platelets (Biological Specialty Corporation), were resuspended in 6 volumes of Hepes/HBSS buffer (10 mM Hepes, 1 mM DTT in Hanks Balanced Salt Solution (HBSS)), lysed and centrifuged at 75,000×g to pellet the membranes. Membranes were resuspended in Hepes/HBSS buffer to approximately 12 mg protein/ml. Membranes (20 μg protein/well) are incubated in 96-well plates with 2 nM [^3H]BWA868C and test compound in Assay Buffer (50 mM Hepes, 10 mM MnCl2, 1 mM EDTA, plus or minus 0.2% human serum albumin, pH 7.4) for 60 minutes at room temperature. The reactions are terminated by rapid filtration through Whatman GF/C glass fibre filter plates. The filter plates were pre-soaked in 0.33% polyethylenimine for 30 minutes at room temperature then washed in Wash Buffer (50 mM Hepes, 0.5 M NaCl pH 7.4) prior to harvesting. After harvesting, the filter plates are washed 3 times with 1 ml cold Wash Buffer then dried. Scintillant is then added to the plates and the radioactivity retained on the filters is determined on a Packard TopCount (Perkin Elmer). Specific binding is determined as total radioactive binding minus non-specific binding in the presence of 10 μM BW A868C. IC50s were determined using GraphPad prism analysis of drug titration curves.

human DP2 receptor = biological target: T2, human DP2 receptor (Homo sapiens, UniProt Q9Y5Y4); test: DP2/CRTH2 radioligand binding assay ([3H]PGD2); conditions: [3H]PGD2 binding, membranes of HEK293 cells expressing human DP2; read-out: hDP2
T2 construct: expressed in transfected cells
T2 sequence (Q9Y5Y4 1-395): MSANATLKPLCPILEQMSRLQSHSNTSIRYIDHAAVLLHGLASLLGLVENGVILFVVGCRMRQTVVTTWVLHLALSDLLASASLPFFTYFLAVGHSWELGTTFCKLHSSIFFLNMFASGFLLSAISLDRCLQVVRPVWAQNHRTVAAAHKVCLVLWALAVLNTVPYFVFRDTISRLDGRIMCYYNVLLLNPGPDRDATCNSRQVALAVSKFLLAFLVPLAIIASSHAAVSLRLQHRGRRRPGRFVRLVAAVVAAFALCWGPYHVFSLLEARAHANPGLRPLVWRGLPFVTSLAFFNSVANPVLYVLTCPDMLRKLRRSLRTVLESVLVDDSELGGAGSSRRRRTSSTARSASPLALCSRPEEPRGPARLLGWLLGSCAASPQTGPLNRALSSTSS
Description: The ability of a compound to bind to the human DP2 receptor is assessed via a radioligand binding assay using [^3H]PGD2. HEK293 cells stably expressing recombinant human DP2 are resuspended in 10 mM Hepes, 7.4 containing 1 mM DTT, lysed and centrifuged at 75,000×g to pellet the membranes. The membranes are resuspended in 10 mM Hepes, 7.4 containing 1 mM DTT and 10% glycerol to approximately 5 mg protein/ml. Membranes (2-10 μg protein/well) are incubated in 96-well plates with 1 nM [^3H]PGD2 and test compound in Assay Buffer (50 mM Hepes, 10 mM MnCl2, 1 mM EDTA, plus or minus 0.2% human serum albumin, pH 7.4) for 60 minutes at room temperature. The reactions are terminated by rapid filtration through Whatman GF/C glass fibre filter plates. The filter plates were pre-soaked in 0.33% polyethylenimine for 30 minutes at room temperature then washed in Wash Buffer (50 mM Hepes, 0.5 M NaCl pH 7.4) prior to harvesting. After harvesting, the filter plates are washed 3 times with 1 ml cold Wash Buffer then dried. Scintillant is then added to the plates and the radioactivity retained on the filters is determined on a Packard TopCount (Perkin Elmer). Specific binding is determined as total radioactive binding minus non-specific binding in the presence of 10 μM PGD2. IC50s were determined using GraphPad prism analysis of drug titration curves.

[1] = [3H]BWA868C binding, human platelet membranes, read-out: hDP1

Row | Compound | pIC50 (human DP1 receptor; [1]) | further results
1 | COc1ccc(CC(=O)O)cc1-c1ccc(C(F)(F)F)cc1CN(C)C(C)=O [Compound 1-1, {2′-[(Acetyl-methyl-amino)-methyl]-6-methoxy-4′-trifluoromethyl-biphenyl-3-yl}-acetic acid] | 4.52 to 6.00 | –
2 | CCN(Cc1cc(C(F)(F)F)ccc1-c1cc(CC(=O)O)ccc1OC)C(C)=O [Compound 1-2, {2′-[(Acetyl-ethyl-amino)-methyl]-6-methoxy-4′-trifluoromethyl-biphenyl-3-yl}-acetic acid] | 4.52 to 6.00 | –
3 | COc1ccc(CC(=O)O)cc1-c1ccc(C(F)(F)F)cc1CN(CC(F)(F)F)C(C)=O [Compound 1-4, (2′-{[Acetyl-(2,2,2-trifluoro-ethyl)-amino]-methyl}-6-methoxy-4′-trifluoromethyl-biphenyl-3-yl)-acetic acid] | 4.52 to 6.00 | –
4 | CCN(Cc1cc(C(F)(F)F)ccc1-c1cc(CC(=O)O)ccc1F)C(C)=O [Compound 1-10, {2′-[(Acetyl-ethyl-amino)-methyl]-6-fluoro-4′-trifluoromethyl-biphenyl-3-yl}-acetic acid] | 4.52 to 6.00 | –
5 | CC(=O)N(Cc1cc(C(F)(F)F)ccc1-c1cc(CC(=O)O)ccc1F)CC(F)(F)F [Compound 1-11, (2′-{[Acetyl-(2,2,2-trifluoro-ethyl)-amino]-methyl}-6-fluoro-4′-trifluoromethyl-biphenyl-3-yl)-acetic acid] | 4.52 to 6.00 | –
6 | COc1ccc(CC(=O)O)cc1-c1ccc(C(F)(F)F)cc1CN(C(C)=O)C1CC1 [Compound 1-12, {2′-[(Acetyl-cyclopropyl-amino)-methyl]-6-methoxy-4′-trifluoromethyl-biphenyl-3-yl}-acetic acid] | 4.52 to 6.00 | –
7 | CCN(Cc1cc(C(F)(F)F)ccc1-c1cc(CC(=O)O)ccc1OC)C(=O)OC [Compound 1-23, {2′-[(Ethyl-methoxycarbonyl-amino)-methyl]-6-methoxy-4′-trifluoromethyl-biphenyl-3-yl}-acetic acid] | 4.52 to 6.00 | –
8 | COc1ccc(CC(=O)O)cc1-c1ccc(C(F)(F)F)cc1CN(C)C(=O)OCc1ccccc1 [Compound 1-27, {2′-[(Benzyloxycarbonyl-methyl-amino)-methyl]-6-methoxy-4′-trifluoromethyl-biphenyl-3-yl}-acetic acid] | 4.52 to 6.00 | –
9 | CCN(Cc1cc(C(F)(F)F)ccc1-c1cc(CC(=O)O)ccc1OC)C(=O)OCc1ccccc1 [Compound 1-28, {2′-[(Benzyloxycarbonyl-ethyl-amino)-methyl]-6-methoxy-4′-trifluoromethyl-biphenyl-3-yl}-acetic acid] | 4.52 to 6.00 | –
10 | CN(Cc1cc(C(F)(F)F)ccc1-c1cc(CC(=O)O)ccc1F)C(=O)OCc1ccccc1 [Compound 1-29, {2′-[(Benzyloxycarbonyl-methyl-amino)-methyl]-6-fluoro-4′-trifluoromethyl-biphenyl-3-yl}-acetic acid] | 4.52 to 6.00 | –
11 | COc1ccc(CC(=O)O)cc1-c1ccc(C(F)(F)F)cc1CN(C(C)=O)C1CCC1 [Compound 1-30, {2′-[(Acetyl-cyclobutyl-amino)-methyl]-6-methoxy-4′-trifluoromethyl-biphenyl-3-yl}-acetic acid] | 4.52 to 6.00 | –
12 | COc1ccc(CC(=O)O)cc1-c1ccc(C(F)(F)F)cc1CN(C(C)=O)C1CCCC1 [Compound 1-31, {2′-[(Acetyl-cyclopentyl-amino)-methyl]-6-methoxy-4′-trifluoromethyl-biphenyl-3-yl}-acetic acid] | 4.52 to 6.00 | –
13 | CCN(Cc1cc(C(F)(F)F)ccc1-c1cc(CC(=O)O)ccc1OC)C(=O)C(F)(F)F [Compound 1-32, (2′-{[Ethyl-(2,2,2-trifluoro-acetyl)-amino]-methyl}-6-methoxy-4′-trifluoromethyl-biphenyl-3-yl)-acetic acid] | 4.52 to 6.00 | –
14 | CCN(Cc1cc(C(F)(F)F)ccc1-c1cc(CC(=O)O)ccc1OC)C(=O)C1CC1 [Compound 1-33, {2′-[(Cyclopropanecarbonyl-ethyl-amino)-methyl]-6-methoxy-4′-trifluoromethyl-biphenyl-3-yl}-acetic acid] | 4.52 to 6.00 | –
15 | COc1ccc(CC(=O)O)cc1-c1ccc(C(F)(F)F)cc1CN(C(=O)OCc1ccccc1)C1CCC1 [Compound 1-34, {2′-[(Benzyloxycarbonyl-cyclobutyl-amino)-methyl]-6-methoxy-4′-trifluoromethyl-biphenyl-3-yl}-acetic acid] | 4.52 to 6.00 | –
16 | COc1ccc(CC(=O)O)cc1-c1ccc(C(F)(F)F)cc1CN(C(=O)OCc1ccccc1)C1CC1 [Compound 1-36, {2′-[(Benzyloxycarbonyl-cyclopropyl-amino)-methyl]-6-methoxy-4′-trifluoromethyl-biphenyl-3-yl}-acetic acid] | – | pIC50 (human DP1 receptor): 4.52 to 6.00
17 | CCN(Cc1cc(C(F)(F)F)ccc1-c1cc(CC(=O)O)ccc1OC)C(=O)OCc1cc(Cl)cc(Cl)c1 [Compound 1-38, (2′-{[(3,5-Dichloro-benzyloxycarbonyl)-ethyl-amino]-methyl}-6-methoxy-4′-trifluoromethyl-biphenyl-3-yl)-acetic acid] | 4.52 to 6.00 | –
18 | CCN(Cc1cc(C(F)(F)F)ccc1-c1cc(CC(=O)O)ccc1OC)C(=O)OCc1ccccc1Cl [Compound 1-39, (2′-{[(2-Chloro-benzyloxycarbonyl)-ethyl-amino]-methyl}-6-methoxy-4′-trifluoromethyl-biphenyl-3-yl)-acetic acid] | 4.52 to 6.00 | –
19 | CCN(Cc1cc(C(F)(F)F)ccc1-c1cc(CC(=O)O)ccc1OC)C(=O)OCc1cc(F)cc(F)c1 [Compound 1-40, (2′-{[(3,5-Difluoro-benzyloxycarbonyl)-ethyl-amino]-methyl}-6-methoxy-4′-trifluoromethyl-biphenyl-3-yl)-acetic acid] | 4.52 to 6.00 | –
20 | CCN(Cc1cc(C(F)(F)F)ccc1-c1cc(CC(=O)O)ccc1OC)C(=O)OCc1ccc(F)cc1 [Compound 1-41, (2′-{[Ethyl-(4-fluoro-benzyloxycarbonyl)-amino]-methyl}-6-methoxy-4′-trifluoromethyl-biphenyl-3-yl)-acetic acid] | 4.52 to 6.00 | –
21 | CCN(Cc1cc(C(F)(F)F)ccc1-c1cc(CC(=O)O)ccc1OC)C(=O)OCc1ccc(Cl)cc1 [Compound 1-42, (2′-{[(4-Chloro-benzyloxycarbonyl)-ethyl-amino]-methyl}-6-methoxy-4′-trifluoromethyl-biphenyl-3-yl)-acetic acid] | 4.52 to 6.00 | –
22 | CCN(Cc1cc(C(F)(F)F)ccc1-c1cc(CC(=O)O)ccc1OC)C(=O)OCc1cccc(Cl)c1 [Compound 1-43, (2′-{[(3-Chloro-benzyloxycarbonyl)-ethyl-amino]-methyl}-6-methoxy-4′-trifluoromethyl-biphenyl-3-yl)-acetic acid] | 4.52 to 6.00 | –
23 | CCN(Cc1cc(C(F)(F)F)ccc1-c1cc(CC(=O)O[C@@H]2O[C@H](C(=O)O)[C@@H](O)[C@H](O)[C@H]2O)ccc1OC)C(=O)NCc1ccccc1 [Compound 2-17, (2S,3S,4S,5R,6S)-6-{2-[2′-(3-Benzyl-1-ethyl-ureidomethyl)-6-methoxy-4′-trifluoromethyl-biphenyl-3-yl]-acetoxy}-3,4,5-trihydroxy-tetrahydro-pyran-2-carboxylic acid] | – | pIC50 (human DP2 receptor): 6.00 to 6.52
